Data as given in patent publication US9321748B2, “Aminopyridine derived compounds as LRRK2 inhibitors” (H. Lundbeck A/S, priority 2013, dated 2016).

How the values were obtained:
LRRK2 G2019S = LRRK2 G2019S (Homo sapiens (Human), UniProt Q5S007, G2019S); assay: LRRK2 G2019S kinase activity assay (LanthaScreen TR-FRET); format: biochemical; conditions: 250 pM LRRK2 G2019S kinase, 1.3 mM ATP, 0.4 μM fluorescein-LRRKtide
Experimental: (§1) LRRK2 Wild-Type and G2019S Kinase Activity Assay.
(§2) LRRK2 kinase activity is measured using a LanthaScreen kinase activity assay available from Invitrogen (Life Technologies Corporation). […] The phosphorylated peptide is recognized by a terbium-labelled phospho-specific anti-LRRKtide antibody and, subsequently, the phosphorylated LRRKtide can be quantified by the extent of TR-FRET between the terbium donor and fluorescein acceptor.
(§3) The LRRK2 kinase is obtained from Invitrogen (Life Technologies Corporation) and comprises residue 970 to 2527 of the full length human wildtype LRRK2 kinase or a similar sequence with the G2019S mutation. As discussed above, this mutation increases the kinase activity relative to the wild type. The kinase reactions are performed in a […] volume in 384-well plates. The kinase reaction buffer consists of 50 mM Tris pH 8.5, 0.01% BRIJ-35, 10 mM MgCl2, 1 mM EGTA, and 2 mM DTT.
(§4) The reaction mixture (20 μl total volume) is incubated for 2 hours at 30° C. before the reaction is terminated by addition of 10 mM EDTA and 1 nM terbium-labelled anti-phospho-LRRKtide antibody (final volume […]). The mixture is further incubated for 30 minutes at RT. TR-FRET is measured by excitation of the terbium-donor with 340 nm light and subsequent (delay time 100 μs) measurement of terbium and fluorescein emission at 495 nm and 520 nm, respectively, over a time window of 1000 μs. The measurement is repeated 10 times for fluorescein and 10 times for terbium emission with a 2000 μs time window between repeats. TR-FRET measurements are performed on a […] plate. The TR-FRET signal is calculated as the emission-ratio at 520 nm over 495 nm.
(§5) Test compound potency (IC50) was estimated by nonlinear regression using the sigmoidal dose-response (variable slope) using Xlfit 4 (IDBS, Guildford, Surrey, UK, model 205). y=(A+((B−A)/(1+((C/x)^D)))) where y is the normalized TR-TRET ratio measurement for a given concentration of test compound, x is the concentration of test compound, A is the estimated efficacy (% inhibition) at infinite compound dilution, and B is the maximal efficacy (% inhibition). C is the IC50 value and D is the Hill slope coefficient. IC50 estimates were obtained from independent experiment and the logarithmic average was calculated.

LRRK2 WT = LRRK2 WT (Homo sapiens (Human), UniProt Q5S007); assay: LRRK2 wild-type kinase activity assay (LanthaScreen TR-FRET); format: biochemical; conditions: 1 nM LRRK2 WT kinase, 1.3 mM ATP, 0.4 μM fluorescein-LRRKtide
Experimental: as §1, §2, §3, §4, §5

LRRK2 G2019S, sequence (Q5S007 970-2527 G2019S): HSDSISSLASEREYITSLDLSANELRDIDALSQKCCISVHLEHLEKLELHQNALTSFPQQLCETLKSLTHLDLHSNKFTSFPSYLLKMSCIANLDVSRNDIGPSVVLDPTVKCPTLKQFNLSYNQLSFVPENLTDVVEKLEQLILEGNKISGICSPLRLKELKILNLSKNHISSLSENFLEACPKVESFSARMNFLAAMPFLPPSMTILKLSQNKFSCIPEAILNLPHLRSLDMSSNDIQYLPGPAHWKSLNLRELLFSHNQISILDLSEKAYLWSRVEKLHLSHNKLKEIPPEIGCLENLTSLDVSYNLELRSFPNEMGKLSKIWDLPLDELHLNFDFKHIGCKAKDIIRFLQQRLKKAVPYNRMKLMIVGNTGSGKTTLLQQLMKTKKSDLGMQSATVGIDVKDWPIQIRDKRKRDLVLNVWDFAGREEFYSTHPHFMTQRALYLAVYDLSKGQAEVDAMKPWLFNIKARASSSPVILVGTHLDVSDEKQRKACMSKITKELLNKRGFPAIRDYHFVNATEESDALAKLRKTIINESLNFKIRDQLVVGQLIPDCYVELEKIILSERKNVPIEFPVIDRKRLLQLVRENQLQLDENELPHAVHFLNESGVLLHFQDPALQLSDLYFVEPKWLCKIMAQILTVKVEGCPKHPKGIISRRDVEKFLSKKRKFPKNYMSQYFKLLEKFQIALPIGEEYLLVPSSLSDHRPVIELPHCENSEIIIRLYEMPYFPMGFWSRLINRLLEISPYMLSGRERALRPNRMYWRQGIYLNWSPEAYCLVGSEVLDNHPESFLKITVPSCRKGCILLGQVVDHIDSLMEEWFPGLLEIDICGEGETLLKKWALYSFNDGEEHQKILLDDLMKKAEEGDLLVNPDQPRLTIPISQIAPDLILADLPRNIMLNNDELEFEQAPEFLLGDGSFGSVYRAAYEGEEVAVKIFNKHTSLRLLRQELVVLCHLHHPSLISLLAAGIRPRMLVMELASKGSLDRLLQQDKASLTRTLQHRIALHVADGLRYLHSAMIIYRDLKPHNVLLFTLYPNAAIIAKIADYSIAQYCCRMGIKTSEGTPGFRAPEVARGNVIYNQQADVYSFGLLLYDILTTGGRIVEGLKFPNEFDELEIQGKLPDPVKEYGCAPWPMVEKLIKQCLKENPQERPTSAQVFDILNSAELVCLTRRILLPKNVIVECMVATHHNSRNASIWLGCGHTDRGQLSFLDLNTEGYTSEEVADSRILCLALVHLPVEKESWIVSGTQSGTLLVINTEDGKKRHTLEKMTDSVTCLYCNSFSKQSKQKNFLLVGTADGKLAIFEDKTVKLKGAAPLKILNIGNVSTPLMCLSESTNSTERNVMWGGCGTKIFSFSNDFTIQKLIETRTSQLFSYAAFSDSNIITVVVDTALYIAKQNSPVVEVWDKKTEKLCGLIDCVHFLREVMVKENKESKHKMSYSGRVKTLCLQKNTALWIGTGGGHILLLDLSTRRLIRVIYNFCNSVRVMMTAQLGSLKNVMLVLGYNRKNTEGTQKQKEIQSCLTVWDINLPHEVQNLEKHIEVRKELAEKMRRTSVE
LRRK2 WT, sequence (Q5S007 970-2527): as the sequence (Q5S007 970-2527 G2019S) above, with S1050G counted along it

CC(C)c1nnc(-c2cc(-c3ccc4[nH]ccc4c3)cnc2N)o1 [Example 1, 5-(1H-Indol-5-yl)-3-(5-isopropyl-[1,3,4]oxadiazol-2-yl)-pyridin-2-ylamine]
IC50 (LRRK2 G2019S): 0.91 µM

Nc1ncc(-c2ccc3[nH]ccc3c2)cc1-c1nnc(C2CC2)o1 [Example 2, 3-(5-Cyclopropyl-[1,3,4]oxadiazol-2-yl)-5-(1H-indol-5-yl)-pyridin-2-ylamine]
IC50 (LRRK2 G2019S): 1 µM | IC50 (LRRK2 WT): 0.57 µM

CN1CCc2cc(-c3cnc(N)c(-c4nnc(C5CC5)o4)c3)ccc21 [Example 3, 3-(5-Cyclopropyl-[1,3,4]oxadiazol-2-yl)-5-(1-methyl-2,3-dihydro-1H-indol-5-yl)-pyridin-2-ylamine]
IC50 (LRRK2 G2019S): 0.71 µM | IC50 (LRRK2 WT): 0.97 µM

Cc1ccc(-c2cnc(N)c(-c3nnc(C4CCN(C)CC4)o3)c2)cc1 [Example 4, 3-[5-(1-Methyl-piperidin-4-yl)-[1,3,4]oxadiazol-2-yl]-5-p-tolyl-pyridin-2-ylamine]
IC50 (LRRK2 G2019S): 0.86 µM | IC50 (LRRK2 WT): 3.6 µM

CN1CCc2cc(-c3cnc(N)c(-c4nnc(C5CCNCC5)o4)c3)ccc21 [Example 5, 5-(1-Methyl-2,3-dihydro-1H-indol-5-yl)-3-(5-piperidin-4-yl-[1,3,4]oxadiazol-2-yl)-pyridin-2-ylamine]
IC50 (LRRK2 G2019S): 0.38 µM | IC50 (LRRK2 WT): 2.2 µM

Nc1ncc(-c2ccc(CN3CCOCC3)cc2)cc1-c1nnc(C2CC2)o1 [Example 6, 3-(5-Cyclopropyl-[1,3,4]oxadiazol-2-yl)-5-(4-morpholin-4-ylmethyl-phenyl)-pyridin-2-ylamine]
IC50 (LRRK2 G2019S): 0.39 µM | IC50 (LRRK2 WT): 0.49 µM

COc1cccc(-c2cnc(N)c(-c3nnc(C4CCNCC4)o3)c2)c1 [Example 7, 5-(3-Methoxy-phenyl)-3-(5-piperidin-4-yl-[1,3,4]oxadiazol-2-yl)-pyridin-2-ylamine]
IC50 (LRRK2 G2019S): 1 µM | IC50 (LRRK2 WT): 3.3 µM

COc1cccc(-c2cnc(N)c(-c3nnc(C4CCN(C)CC4)o3)c2)c1 [Example 8, 5-(3-Methoxy-phenyl)-3-[5-(1-methyl-piperidin-4-yl)-[1,3,4]oxadiazol-2-yl]-pyridin-2-ylamine]
IC50 (LRRK2 G2019S): 0.88 µM | IC50 (LRRK2 WT): 2.2 µM

CC(C)n1cc(-c2cc(-c3ccc4c(ccn4C)c3)cnc2N)nn1 [Example 9, 3-(1-Isopropyl-1H-[1,2,3]triazol-4-yl)-5-(1-methyl-1H-indol-5-yl)-pyridin-2-ylamine]
IC50 (LRRK2 G2019S): 0.54 µM | IC50 (LRRK2 WT): 0.55 µM

CC(C)n1cc(-c2cc(-c3ccc4c(c3)CCN4C)cnc2N)nn1 [Example 10, 3-(1-Isopropyl-1H-[1,2,3]triazol-4-yl)-5-(1-methyl-2,3-dihydro-1H-indol-5-yl)-pyridin-2-ylamine]
IC50 (LRRK2 G2019S): 0.35 µM | IC50 (LRRK2 WT): 0.62 µM

CC(C)n1cc(-c2nc(-c3ccc4c(c3)CCN4C)cnc2N)nn1 [Example 11, 3-(1-Isopropyl-1H-[1,2,3]triazol-4-yl)-5-(1-methyl-2,3-dihydro-1H-indol-5-yl)-pyrazin-2-ylamine]
IC50 (LRRK2 G2019S): 0.34 µM | IC50 (LRRK2 WT): 0.57 µM

CC(C)n1cc(-c2cc(-c3ccc(CN4CCOCC4)cc3)cnc2N)nn1 [Example 12, 3-(1-Isopropyl-H-[1,2,3]triazol-4-yl)-5-(4-morpholin-4-ylmethyl-phenyl)-pyridin-2-ylamine]
IC50 (LRRK2 G2019S): 0.16 µM | IC50 (LRRK2 WT): 0.3 µM

CC(C)n1cc(-c2cc(-c3ccc(N4CCOCC4)cc3)cnc2N)nn1 [Example 13, 3-(1-Isopropyl-1H-[1,2,3]triazol-4-yl)-5-(4-morpholin-4-yl-phenyl)-pyridin-2-ylamine]
IC50 (LRRK2 G2019S): 0.28 µM | IC50 (LRRK2 WT): 0.34 µM

CC(C)n1cc(-c2cc(-c3ccc(CCN4CCOCC4)cc3)cnc2N)nn1 [Example 14, 3-(1-Isopropyl-1H-[1,2,3]triazol-4-yl)-5-[4-(2-morpholin-4-yl-ethyl)-phenyl]-pyridin-2-ylamine]
IC50 (LRRK2 G2019S): 0.34 µM | IC50 (LRRK2 WT): 0.6 µM

CC(C)n1cc(-c2cc(-c3ccc(CN4CCOCC4)c(F)c3)cnc2N)nn1 [Example 15, 5-(3-fluoro-4-(morpholinomethyl)phenyl)-3-(1-isopropyl-1H-1,2,3-triazol-4-yl)pyridin-2-amine]
IC50 (LRRK2 G2019S): 0.37 µM | IC50 (LRRK2 WT): 0.2 µM

CC(C)n1cc(-c2cc(-c3ccc(C(=O)N4CCOCC4)c(F)c3)cnc2N)nn1 [Example 16, (4-(6-amino-5-(1-isopropyl-1H-1,2,3-triazol-4-yl)pyridin-3-yl)-2-fluorophenyl)(morpholino)methanone]
IC50 (LRRK2 G2019S): 0.51 µM | IC50 (LRRK2 WT): 0.58 µM

COc1cc(-c2cnc(N)c(-c3cn(C(C)C)nn3)c2)ccc1C(=O)N1CCOCC1 [Example 17, [4-[6-amino-5-(1-isopropyltriazol-4-yl)-3-pyridyl]-2-methoxy-phenyl]-morpholino-methanone]
IC50 (LRRK2 G2019S): 0.095 µM | IC50 (LRRK2 WT): 0.091 µM

COc1cc(-c2cnc(N)c(-c3cn(C(C)C)nn3)c2)ccc1CN1CCOCC1 [Example 18, 3-(1-isopropyltriazol-4-yl)-5-[3-methoxy-4-(morpholinomethyl)phenyl]pyridin-2-amine]
IC50 (LRRK2 G2019S): 0.086 µM | IC50 (LRRK2 WT): 0.093 µM

CC(C)n1cc(-c2cc(-c3ccc(F)c(CN4CCOCC4)c3)cnc2N)nn1 [Example 19, 5-[4-fluoro-3-(morpholinomethyl)phenyl]-3-(1-isopropyltriazol-4-yl)pyridin-2-amine]
IC50 (LRRK2 G2019S): 0.88 µM | IC50 (LRRK2 WT): 1 µM

Cc1cc(-c2cnc(N)c(-c3cn(C(C)C)nn3)c2)ccc1C(=O)N1CCOCC1 [Example 20, [4-[6-amino-5-(1-isopropyltriazol-4-yl)-3-pyridyl]-2-methyl-phenyl]-morpholino-methanone]
IC50 (LRRK2 G2019S): 0.11 µM | IC50 (LRRK2 WT): 0.099 µM

Cc1cc(-c2cnc(N)c(-c3cn(C(C)C)nn3)c2)ccc1CN1CCOCC1 [Example 21]
IC50 (LRRK2 G2019S): 0.24 µM | IC50 (LRRK2 WT): 0.26 µM

CC(C)n1cc(-c2cc(-c3ccc(C(=O)N4CCOCC4)c(Cl)c3)cnc2N)nn1 [Example 22, [4-[6-amino-5-(1-isopropyltriazol-4-yl)-3-pyridyl]-2-chloro-phenyl]-morpholino-methanone]
IC50 (LRRK2 G2019S): 0.29 µM | IC50 (LRRK2 WT): 0.29 µM

CC(C)n1cc(-c2cc(-c3ccc(CN4CCOCC4)c(Cl)c3)cnc2N)nn1 [Example 23, 5-[3-Chloro-4-(morpholinomethyl)phenyl]-3-(1-isopropyltriazol-4-yl)pyridin-2-amine]
IC50 (LRRK2 G2019S): 0.22 µM | IC50 (LRRK2 WT): 0.32 µM

CC(C)n1cc(-c2cc(-c3cccc(CN4CCOCC4)c3)cnc2N)nn1 [Example 24, 3-(1-Isopropyltriazol-4-yl)-5-[3-(morpholinomethyl)phenyl]pyridin-2-amine]
IC50 (LRRK2 G2019S): 0.5 µM | IC50 (LRRK2 WT): 0.37 µM

CC(C)n1cc(-c2cc(-c3cccc(C(=O)N4CCOCC4)c3)cnc2N)nn1 [Example 25, [3-[6-Amino-5-(1-isopropyltriazol-4-yl)-3-pyridyl]phenyl]-morpholino-methanone]
IC50 (LRRK2 G2019S): 0.95 µM | IC50 (LRRK2 WT): 0.65 µM

CC(C)n1cc(-c2cc(-c3cc(Cl)cc(C(=O)N4CCOCC4)c3)cnc2N)nn1 [Example 26, [3-[6-Amino-5-(1-isopropyltriazol-4-yl)-3-pyridyl]-5-chloro-phenyl]-morpholino-methanone]
IC50 (LRRK2 G2019S): 0.69 µM | IC50 (LRRK2 WT): 0.49 µM

CC(C)n1cc(-c2cc(-c3ccc(C(=O)N4CCOCC4)cc3)cnc2N)nn1 [Example 28, [4-[6-Amino-5-(1-isopropyltriazol-4-yl)-3-pyridyl]phenyl]-morpholino-methanone]
IC50 (LRRK2 G2019S): 0.43 µM | IC50 (LRRK2 WT): 0.37 µM

CC(C)n1cc(-c2cc(-c3ccc(CC(=O)N4CCOCC4)cc3)cnc2N)nn1 [Example 30, 2-[4-[6-amino-5-(1-isopropyltriazol-4-yl)-3-pyridyl]phenyl]-1-morpholino-ethanone]
IC50 (LRRK2 G2019S): 0.52 µM | IC50 (LRRK2 WT): 0.67 µM
